Experiments:
Danio rerio embryo [1] = experiment: EC10 Pigmentation decrease; higher = less potent; details: exposure time: 2 dpf
Protocol: (§1)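 Zebrafish embryos (UFZ-OBI strain) were exposed from 2 hpf for 48 h (2 dpf) or 96 h (4 dpf) at 28 °C; spontaneous tail coiling was scored at 25 hpf. Morphological features from automated image analysis (FishInspector), heart rate and locomotor response were fitted with drc models. Quantal endpoints were dichotomised at 2.5 SD from controls and fitted with a log-logistic model; heart rate, pigmentation and STC were normalised to the replicate control mean. Betamethasone was tested as betamethasone dipropionate, diflorasone as diflorasone diacetate.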

Danio rerio embryo [2] = experiment: EC50 Head size_Decrease
Protocol: as §1

Danio rerio embryo [3] = experiment: EC10 Eye size_Decrease; higher = less potent
Protocol: as §1

Danio rerio embryo [4] = experiment: EC10 Lack of SB; higher = less potent; details: exposure time: 4 dpf
Protocol: as §1

Danio rerio embryo [5] = experiment: EC10 STC decrease; higher = less potent; details: exposure time: 25 h
Protocol: as §1

Danio rerio embryo [6] = experiment: EC50 Mandibular arch distance_Decrease; details: exposure time: 4 dpf
Protocol: as §1

Danio rerio embryo [7] = experiment: EC50 Head trunk angle_Decrease; details: exposure time: 2 dpf
Protocol: as §1

Danio rerio embryo [8] = experiment: EC20 Lack of SB; higher = less potent; details: exposure time: 4 dpf
Protocol: as §1

Danio rerio embryo [9] = experiment: EC20 STC decrease; higher = less potent; details: exposure time: 25 h
Protocol: as §1

Danio rerio embryo [10] = experiment: EC20 Head size_Decrease; higher = less potent
Protocol: as §1

Danio rerio embryo [11] = details: exposure time: 2 dpf
Protocol: as §1

Danio rerio embryo [12] = experiment: EC10 Heart rate; higher = less potent
Protocol: as §1

Danio rerio embryo [13] = experiment: EC20 Eye size_Decrease; higher = less potent
Protocol: as §1

Danio rerio embryo [14] = experiment: EC20 Mandibular arch distance_Decrease; higher = less potent; details: exposure time: 4 dpf
Protocol: as §1

Danio rerio embryo [15] = experiment: EC50 Eye size_Decrease
Protocol: as §1

Danio rerio embryo [16] = experiment: EC20 Pigmentation decrease; higher = less potent; details: exposure time: 2 dpf
Protocol: as §1

Danio rerio embryo [17] = experiment: EC10 Head size_Decrease; higher = less potent
Protocol: as §1

Danio rerio embryo [18] = experiment: EC10 LMR ligth increase; higher = less potent; details: exposure time: 4 dpf
Protocol: as §1

Danio rerio embryo [19] = experiment: EC20 LMR ligth increase; higher = less potent; details: exposure time: 4 dpf
Protocol: as §1

Danio rerio embryo [20] = test system: Danio rerio embryo
Protocol: as §1

Danio rerio embryo [21] = experiment: EC20 Heart rate; higher = less potent
Protocol: as §1

Danio rerio embryo [22] = experiment: EC10 Head trunk angle_Decrease; higher = less potent; details: exposure time: 2 dpf
Protocol: as §1

Danio rerio embryo [23] = experiment: EC10 Mandibular arch distance_Decrease; higher = less potent; details: exposure time: 4 dpf
Protocol: as §1

Danio rerio embryo [24] = details: exposure time: 4 dpf
Protocol: as §1

Danio rerio embryo [25] = experiment: EC20 STC bell shape; higher = less potent; details: exposure time: 25 h
Protocol: as §1

Danio rerio embryo [26] = experiment: EC10 STC bell shape; higher = less potent; details: exposure time: 25 h
Protocol: as §1

Danio rerio embryo [27] = experiment: EC20 LMR ligth decrease; higher = less potent; details: exposure time: 4 dpf
Protocol: as §1

Danio rerio embryo [28] = experiment: EC20 Pigmentation increase; higher = less potent; details: exposure time: 4 dpf
Protocol: as §1

Danio rerio embryo [29] = experiment: EC20 STC increase; higher = less potent; details: exposure time: 25 h
Protocol: as §1

Danio rerio embryo [30] = experiment: EC10 LMR ligth decrease; higher = less potent; details: exposure time: 4 dpf
Protocol: as §1

Danio rerio embryo [31] = experiment: EC10 STC increase; higher = less potent; details: exposure time: 25 h
Protocol: as §1

Danio rerio embryo [32] = experiment: EC10 Pigmentation increase; higher = less potent; details: exposure time: 4 dpf
Protocol: as §1

Danio rerio embryo [33] = experiment: EC20 Otolith; higher = less potent; details: exposure time: 2 dpf
Protocol: as §1

Danio rerio embryo [34] = experiment: EC10 Otolith; higher = less potent; details: exposure time: 2 dpf
Protocol: as §1

SMILES	EC10 Pigmentation decrease (Danio rerio embryo [1])	EC50 Head size Decrease (Danio rerio embryo [2]; exposure time: 2 dpf)	EC10 Eye size Decrease (Danio rerio embryo [3]; exposure time: 2 dpf)	EC10 Eye size Decrease (Danio rerio embryo [3]; exposure time: 4 dpf)	EC10 Lack of SB (Danio rerio embryo [4])	EC10 STC decrease (Danio rerio embryo [5])	EC50 Head trunk angle Decrease (Danio rerio embryo [7])	EC20 Lack of SB (Danio rerio embryo [8])	EC20 STC decrease (Danio rerio embryo [9])	EC20 Head size Decrease (Danio rerio embryo [10]; exposure time: 2 dpf)	EC10 Heart rate (Danio rerio embryo [12]; exposure time: 2 dpf)	EC10 Heart rate (Danio rerio embryo [12]; exposure time: 4 dpf)	EC20 Eye size Decrease (Danio rerio embryo [13]; exposure time: 4 dpf)	EC50 Eye size Decrease (Danio rerio embryo [15]; exposure time: 4 dpf)	EC20 Pigmentation decrease (Danio rerio embryo [16])	EC50 Heart rate (Danio rerio embryo [20]; exposure time: 4 dpf)	EC20 Heart rate (Danio rerio embryo [21]; exposure time: 2 dpf)	EC20 Heart rate (Danio rerio embryo [21]; exposure time: 4 dpf)	EC10 Head trunk angle Decrease (Danio rerio embryo [22])	EC50 Lack of SB (Danio rerio embryo [24])	also measured
CC(C)(C)C(O)C(Oc1ccc(Cl)cc1)n1cncn1 (stereo unspecified) [Triadimenol]	76.2 µM	177 µM	138 µM	81.1 µM	19.6 µM	118 µM	152 µM	20.1 µM	135 µM	147 µM	13.7 µM	64.4 µM	90.2 µM	108 µM	98.2 µM	194 µM	23.2 µM	96.8 µM	94.5 µM	20.9 µM	EC50 Mandibular arch distance Decrease (Danio rerio embryo [6]): 169 µM; EC50 Pigmentation decrease (Danio rerio embryo [11]): 152 µM; EC20 Eye size Decrease (Danio rerio embryo [13]; exposure time: 2 dpf): 159 µM; EC20 Mandibular arch distance Decrease (Danio rerio embryo [14]): 133 µM; EC50 Eye size Decrease (Danio rerio embryo [15]; exposure time: 2 dpf): 200 µM; EC10 Head size Decrease (Danio rerio embryo [17]; exposure time: 2 dpf): 132 µM; EC10 LMR ligth increase (Danio rerio embryo [18]): 8.63 µM; EC20 LMR ligth increase (Danio rerio embryo [19]): 17.3 µM; EC50 Heart rate (Danio rerio embryo [20]; exposure time: 2 dpf): 56.8 µM; EC10 Mandibular arch distance Decrease (Danio rerio embryo [23]): 116 µM
Cc1ccc(-c2cc(C(F)(F)F)nn2-c2ccc(S(N)(=O)=O)cc2)cc1 [Celecoxib]	23.7 µM			9.06 µM	8.08 µM			8.45 µM			10.3 µM	2.25 µM	10.5 µM	13.4 µM	27.1 µM		16.1 µM	4.72 µM		9.14 µM	EC20 STC bell shape (Danio rerio embryo [25]): 23.8 µM; EC10 STC bell shape (Danio rerio embryo [26]): 20.4 µM; EC50 Pigmentation decrease (Danio rerio embryo [11]): 34 µM
CC(C)(C)C(O)/C(=C/c1ccc(Cl)cc1Cl)n1cncn1 (stereo unspecified) [Diniconazole]	6.17 µM	5.99 µM	6.22 µM	2.97 µM			4.5 µM			4.37 µM	4.6 µM	5.23 µM	3.61 µM	5.05 µM	7.3 µM	11.3 µM	6.61 µM	7 µM	2.62 µM		EC20 LMR ligth decrease (Danio rerio embryo [27]): 0.855 µM; EC20 Pigmentation increase (Danio rerio embryo [28]): 4.99 µM; EC20 STC increase (Danio rerio embryo [29]): 7.82 µM; EC50 Mandibular arch distance Decrease (Danio rerio embryo [6]): 6.4 µM; EC10 LMR ligth decrease (Danio rerio embryo [30]): 0.478 µM; EC20 Eye size Decrease (Danio rerio embryo [13]; exposure time: 2 dpf): 6.78 µM; EC20 Mandibular arch distance Decrease (Danio rerio embryo [14]): 3.04 µM; EC50 Eye size Decrease (Danio rerio embryo [15]; exposure time: 2 dpf): 7.85 µM; EC10 STC increase (Danio rerio embryo [31]): 6.86 µM; EC10 Pigmentation increase (Danio rerio embryo [32]): 2.49 µM; EC10 Head size Decrease (Danio rerio embryo [17]; exposure time: 2 dpf): 3.64 µM; EC10 Mandibular arch distance Decrease (Danio rerio embryo [23]): 1.96 µM
CCO/N=C(\CC)C1=C(O)CC(c2c(C)cc(C)cc2C)CC1=O (stereo unspecified) [Tralkoxydim]		176 µM	103 µM	89.7 µM	45.3 µM	127 µM	120 µM	51.2 µM	142 µM	103 µM		46.5 µM	94.7 µM	104 µM		56.3 µM		49.9 µM	73.6 µM	63.2 µM	EC20 Otolith (Danio rerio embryo [33]): 160 µM; EC20 Eye size Decrease (Danio rerio embryo [13]; exposure time: 2 dpf): 122 µM; EC50 Eye size Decrease (Danio rerio embryo [15]; exposure time: 2 dpf): 164 µM; EC10 Head size Decrease (Danio rerio embryo [17]; exposure time: 2 dpf): 74.7 µM; EC10 Otolith (Danio rerio embryo [34]): 126 µM
CN(Cc1cnc2nc(N)nc(N)c2n1)c1ccc(C(=O)N[C@@H](CCC(=O)O)C(=O)O)cc1 [Methotrexate]	185 µM			96.2 µM	82.2 µM		252 µM	91 µM					116 µM	162 µM	235 µM				148 µM	108 µM	EC20 LMR ligth decrease (Danio rerio embryo [27]): 53.8 µM; EC10 LMR ligth decrease (Danio rerio embryo [30]): 32.5 µM
CCCNCC(O)COc1ccccc1C(=O)CCc1ccccc1 (stereo unspecified) [Propafenone]	43 µM				6.08 µM	6.36 µM		6.61 µM	13.3 µM		1 µM	2.29 µM			49.3 µM	16.8 µM	4.31 µM	4.78 µM		7.65 µM	EC20 Pigmentation increase (Danio rerio embryo [28]): 26.5 µM; EC50 Head size Decrease (Danio rerio embryo [2]; exposure time: 4 dpf): 31 µM; EC20 Head size Decrease (Danio rerio embryo [10]; exposure time: 4 dpf): 18.3 µM; EC50 Pigmentation decrease (Danio rerio embryo [11]): 62.3 µM; EC10 Pigmentation increase (Danio rerio embryo [32]): 23.1 µM; EC10 Head size Decrease (Danio rerio embryo [17]; exposure time: 4 dpf): 13.4 µM; EC10 LMR ligth increase (Danio rerio embryo [18]): 16.4 µM; EC20 LMR ligth increase (Danio rerio embryo [19]): 17.3 µM; EC50 Heart rate (Danio rerio embryo [20]; exposure time: 2 dpf): 52.1 µM
